We go through 1 compound from PMC7180948, “New Insights into 4-Anilinoquinazolines as Inhibitors of Cardiac Troponin I–Interacting Kinase (TNNi3K)” (Molecules, 2020).

Common to all, as to assay: biochemical
Holding throughout (set-up): KINOMEscan competition binding panel (Eurofins DiscoverX), single concentration, % inhibition
Details in all cases: read-out: 7 at 1 µM % inhibition

In assay [1] the target is BRSK1 (Homo sapiens, UniProt Q8TDC3). An outline of the steps: (§1)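 KINOMEscan selectivity screen; >400 human kinases; compound at 1 µM, single concentration.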
In assay [2] the target is CAMK1D (Homo sapiens, UniProt Q8IU85). An outline of the steps: as §1
Assay [3] concerns the target CDK3 (Homo sapiens, UniProt Q00526). An outline of the steps:
as §1

Assay [4] has as its target CLK1 (Homo sapiens, UniProt P49759). The procedure, abridged:
as §1

In assay [5] the target is T1, DCAMKL2 (Homo sapiens, UniProt Q8N568).
T1 construct: gene DCLK2
An outline of the steps: as §1

For assay [6], the target named is EPHB3 (Homo sapiens, UniProt P54753). An outline of the steps: as §1
Assay [7] has as its target FES (Homo sapiens, UniProt P07332). An outline of the steps: as §1
Assay [8] concerns the target IGF1R (Homo sapiens, UniProt P08069). An outline of the steps:
as §1

Assay [9] has as its target MAP3K4 (Homo sapiens, UniProt Q9Y6R4). The procedure, abridged: as §1
Assay [10] has as its target MARK2 (Homo sapiens, UniProt Q7KZI7). The procedure, abridged: as §1
Assay [11] addresses T2, MEK4 (Homo sapiens, UniProt P45985).
T2 construct: gene MAP2K4
The procedure, abridged:
as §1

For assay [12], the target named is MET (Homo sapiens, UniProt P08581). An outline of the steps:
as §1

The target of assay [13] is T3, MST2 (Homo sapiens, UniProt Q13188).
T3 construct: gene STK3
The procedure, abridged: as §1

Assay [14] concerns the target MYLK2 (Homo sapiens, UniProt Q9H1R3). The procedure, abridged: as §1
In assay [15] the target is NEK1 (Homo sapiens, UniProt Q96PY6). The procedure, abridged: as §1
Assay [16] has as its target PDPK1 (Homo sapiens, UniProt O15530). The procedure, abridged:
as §1

Assay [17] deals with PKN2 (Homo sapiens, UniProt Q16513). An outline of the steps:
as §1

Assay [18] concerns the target T4, PRKR (Homo sapiens, UniProt P19525).
T4 construct: gene EIF2AK2
An outline of the steps: as §1

Assay [19] concerns the target T5, RSK4(Kin.Dom.2-C-terminal) (Homo sapiens, UniProt Q9UK32).
T5 construct: gene RPS6KA6; Kin.Dom.2-C-terminal
An outline of the steps: as §1

The target of assay [20] is SIK2 (Homo sapiens, UniProt Q9H0K1). The procedure, abridged:
as §1

The target of assay [21] is TRPM6 (Homo sapiens, UniProt Q9BX84). The procedure, abridged: as §1
Assay [22] addresses WEE2 (Homo sapiens, UniProt P0C1S8). The procedure, abridged: as §1
Assay [23] deals with WNK1 (Homo sapiens, UniProt Q9H4A3). An outline of the steps:
as §1

Assay [24] has as its target T6, YANK3 (Homo sapiens, UniProt Q86UX6).
T6 construct: gene STK32C
An outline of the steps: as §1

Each structure is given as a SMILES string.

T6 sequence (Q86UX6 whole entry): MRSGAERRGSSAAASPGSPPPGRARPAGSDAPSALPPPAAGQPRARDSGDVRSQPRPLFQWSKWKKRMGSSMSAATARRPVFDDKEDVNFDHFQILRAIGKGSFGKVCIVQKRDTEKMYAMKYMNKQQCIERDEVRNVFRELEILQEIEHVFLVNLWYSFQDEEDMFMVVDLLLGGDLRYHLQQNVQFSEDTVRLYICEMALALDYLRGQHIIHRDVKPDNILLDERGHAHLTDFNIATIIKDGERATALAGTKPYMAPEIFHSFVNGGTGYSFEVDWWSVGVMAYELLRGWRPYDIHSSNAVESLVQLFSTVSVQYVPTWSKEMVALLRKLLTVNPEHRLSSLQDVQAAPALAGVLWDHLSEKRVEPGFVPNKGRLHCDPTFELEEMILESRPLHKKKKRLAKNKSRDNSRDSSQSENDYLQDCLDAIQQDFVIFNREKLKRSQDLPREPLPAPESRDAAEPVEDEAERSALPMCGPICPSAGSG
T1 sequence (Q8N568 whole entry): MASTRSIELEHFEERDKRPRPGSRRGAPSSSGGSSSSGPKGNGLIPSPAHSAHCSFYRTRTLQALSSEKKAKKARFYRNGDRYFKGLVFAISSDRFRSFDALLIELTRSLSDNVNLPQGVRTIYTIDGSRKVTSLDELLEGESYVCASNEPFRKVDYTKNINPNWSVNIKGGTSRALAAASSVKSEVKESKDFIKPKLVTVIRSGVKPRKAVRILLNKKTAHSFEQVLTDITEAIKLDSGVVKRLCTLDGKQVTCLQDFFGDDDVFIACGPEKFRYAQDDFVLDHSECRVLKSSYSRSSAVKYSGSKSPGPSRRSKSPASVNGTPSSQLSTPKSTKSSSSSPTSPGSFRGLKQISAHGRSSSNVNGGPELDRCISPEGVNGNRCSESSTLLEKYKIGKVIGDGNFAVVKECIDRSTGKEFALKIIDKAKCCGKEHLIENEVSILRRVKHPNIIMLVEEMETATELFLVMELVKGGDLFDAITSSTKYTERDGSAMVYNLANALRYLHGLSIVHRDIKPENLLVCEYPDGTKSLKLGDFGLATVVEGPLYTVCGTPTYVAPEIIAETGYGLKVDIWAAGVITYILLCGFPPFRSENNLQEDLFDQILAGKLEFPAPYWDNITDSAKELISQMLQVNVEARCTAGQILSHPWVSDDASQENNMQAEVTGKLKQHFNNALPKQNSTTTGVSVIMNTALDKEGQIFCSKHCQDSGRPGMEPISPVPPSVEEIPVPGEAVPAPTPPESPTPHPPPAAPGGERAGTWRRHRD
Chain of SIK2 (Q9H0K1 whole entry): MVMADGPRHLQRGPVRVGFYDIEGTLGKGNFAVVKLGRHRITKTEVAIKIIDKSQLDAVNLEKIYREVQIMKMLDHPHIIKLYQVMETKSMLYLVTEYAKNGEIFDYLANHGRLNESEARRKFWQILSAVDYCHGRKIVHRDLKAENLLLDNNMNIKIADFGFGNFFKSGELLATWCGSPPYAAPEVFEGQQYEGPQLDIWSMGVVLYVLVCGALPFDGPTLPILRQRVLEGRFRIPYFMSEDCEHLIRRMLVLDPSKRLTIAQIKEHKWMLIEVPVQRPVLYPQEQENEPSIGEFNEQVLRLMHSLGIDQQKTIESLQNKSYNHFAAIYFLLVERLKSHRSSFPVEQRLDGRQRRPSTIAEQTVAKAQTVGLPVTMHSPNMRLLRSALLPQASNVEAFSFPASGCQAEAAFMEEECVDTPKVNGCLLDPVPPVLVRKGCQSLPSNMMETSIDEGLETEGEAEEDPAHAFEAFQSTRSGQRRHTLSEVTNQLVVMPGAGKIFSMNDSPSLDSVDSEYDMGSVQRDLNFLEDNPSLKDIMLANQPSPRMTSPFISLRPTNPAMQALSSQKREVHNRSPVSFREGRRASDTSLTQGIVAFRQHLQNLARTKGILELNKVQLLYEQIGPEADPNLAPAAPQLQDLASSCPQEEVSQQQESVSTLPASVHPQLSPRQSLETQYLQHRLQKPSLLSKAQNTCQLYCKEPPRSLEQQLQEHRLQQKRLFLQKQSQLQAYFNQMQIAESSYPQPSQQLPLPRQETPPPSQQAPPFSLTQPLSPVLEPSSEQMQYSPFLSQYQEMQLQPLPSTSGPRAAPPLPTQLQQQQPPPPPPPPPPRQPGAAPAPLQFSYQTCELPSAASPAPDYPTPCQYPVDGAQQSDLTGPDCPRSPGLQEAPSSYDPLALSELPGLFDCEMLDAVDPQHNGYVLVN
Chain of WNK1 (Q9H4A3 whole entry): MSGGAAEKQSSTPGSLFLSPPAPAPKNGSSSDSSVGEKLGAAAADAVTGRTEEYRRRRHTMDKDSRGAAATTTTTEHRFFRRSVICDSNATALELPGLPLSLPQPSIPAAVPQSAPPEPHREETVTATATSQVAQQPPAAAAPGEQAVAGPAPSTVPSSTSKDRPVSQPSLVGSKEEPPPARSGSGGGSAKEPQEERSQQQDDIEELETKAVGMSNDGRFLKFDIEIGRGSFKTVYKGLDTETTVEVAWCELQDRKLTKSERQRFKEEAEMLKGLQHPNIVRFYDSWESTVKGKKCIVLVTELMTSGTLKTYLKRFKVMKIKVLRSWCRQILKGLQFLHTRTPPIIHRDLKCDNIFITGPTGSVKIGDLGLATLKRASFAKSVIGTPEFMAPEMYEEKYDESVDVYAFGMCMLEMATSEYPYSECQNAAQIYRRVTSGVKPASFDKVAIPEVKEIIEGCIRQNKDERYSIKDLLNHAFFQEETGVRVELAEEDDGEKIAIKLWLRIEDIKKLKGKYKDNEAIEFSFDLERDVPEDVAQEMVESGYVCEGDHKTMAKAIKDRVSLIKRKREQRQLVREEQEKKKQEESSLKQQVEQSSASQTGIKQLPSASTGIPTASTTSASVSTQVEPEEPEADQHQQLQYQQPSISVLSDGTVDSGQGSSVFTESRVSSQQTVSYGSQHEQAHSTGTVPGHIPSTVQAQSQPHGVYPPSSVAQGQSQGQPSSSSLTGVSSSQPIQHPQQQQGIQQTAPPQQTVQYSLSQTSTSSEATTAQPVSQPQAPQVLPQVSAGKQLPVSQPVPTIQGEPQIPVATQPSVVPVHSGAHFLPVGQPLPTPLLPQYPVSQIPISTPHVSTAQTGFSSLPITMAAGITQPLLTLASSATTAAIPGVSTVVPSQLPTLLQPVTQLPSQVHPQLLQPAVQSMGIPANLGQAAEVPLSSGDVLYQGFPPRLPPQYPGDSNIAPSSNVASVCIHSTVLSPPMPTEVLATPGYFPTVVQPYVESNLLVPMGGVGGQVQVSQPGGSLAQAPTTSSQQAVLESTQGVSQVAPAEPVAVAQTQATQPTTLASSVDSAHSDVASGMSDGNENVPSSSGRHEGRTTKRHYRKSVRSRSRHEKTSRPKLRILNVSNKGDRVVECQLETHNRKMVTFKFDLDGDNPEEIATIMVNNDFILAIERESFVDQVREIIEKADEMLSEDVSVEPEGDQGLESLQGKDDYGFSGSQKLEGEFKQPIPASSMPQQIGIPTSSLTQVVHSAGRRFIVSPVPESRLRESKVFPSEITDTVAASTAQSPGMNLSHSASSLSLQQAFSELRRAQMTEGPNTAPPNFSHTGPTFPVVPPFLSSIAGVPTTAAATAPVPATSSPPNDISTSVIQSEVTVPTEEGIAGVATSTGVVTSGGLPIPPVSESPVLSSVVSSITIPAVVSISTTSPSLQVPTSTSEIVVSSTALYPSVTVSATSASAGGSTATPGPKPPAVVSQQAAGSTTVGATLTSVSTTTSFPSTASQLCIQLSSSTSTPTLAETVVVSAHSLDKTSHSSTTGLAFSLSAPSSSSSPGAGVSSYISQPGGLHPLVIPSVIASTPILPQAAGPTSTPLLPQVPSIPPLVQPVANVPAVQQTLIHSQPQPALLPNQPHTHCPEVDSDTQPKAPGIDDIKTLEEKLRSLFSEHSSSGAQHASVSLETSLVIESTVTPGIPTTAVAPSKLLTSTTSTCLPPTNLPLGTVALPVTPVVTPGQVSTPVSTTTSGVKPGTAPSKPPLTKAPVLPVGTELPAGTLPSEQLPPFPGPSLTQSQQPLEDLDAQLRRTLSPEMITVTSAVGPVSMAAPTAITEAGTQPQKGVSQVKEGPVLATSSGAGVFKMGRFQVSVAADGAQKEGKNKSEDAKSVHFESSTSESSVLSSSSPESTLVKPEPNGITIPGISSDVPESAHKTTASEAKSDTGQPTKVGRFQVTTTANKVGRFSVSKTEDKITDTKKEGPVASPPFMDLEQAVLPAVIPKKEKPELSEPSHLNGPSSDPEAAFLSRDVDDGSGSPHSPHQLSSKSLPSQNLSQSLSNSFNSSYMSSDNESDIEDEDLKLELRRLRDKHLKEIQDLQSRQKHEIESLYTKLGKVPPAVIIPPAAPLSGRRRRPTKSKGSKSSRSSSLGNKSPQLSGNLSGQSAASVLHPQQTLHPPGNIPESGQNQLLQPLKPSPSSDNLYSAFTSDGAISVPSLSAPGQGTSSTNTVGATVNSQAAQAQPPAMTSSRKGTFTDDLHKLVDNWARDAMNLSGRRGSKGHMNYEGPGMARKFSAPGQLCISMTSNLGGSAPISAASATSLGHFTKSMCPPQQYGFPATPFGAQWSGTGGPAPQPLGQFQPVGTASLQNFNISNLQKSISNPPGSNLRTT
T2 sequence (P45985 whole entry): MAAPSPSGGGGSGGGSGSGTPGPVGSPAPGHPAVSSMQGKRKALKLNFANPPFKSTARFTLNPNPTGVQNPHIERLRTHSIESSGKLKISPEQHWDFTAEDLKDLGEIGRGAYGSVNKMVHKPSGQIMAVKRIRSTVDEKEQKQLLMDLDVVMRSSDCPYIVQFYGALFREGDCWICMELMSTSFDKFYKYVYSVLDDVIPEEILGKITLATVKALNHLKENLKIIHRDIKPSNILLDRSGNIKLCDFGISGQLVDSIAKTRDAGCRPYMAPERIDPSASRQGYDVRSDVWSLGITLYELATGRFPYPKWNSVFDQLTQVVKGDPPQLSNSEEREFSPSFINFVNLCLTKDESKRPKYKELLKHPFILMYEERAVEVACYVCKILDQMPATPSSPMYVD

Take `CNS(=O)(=O)c1ccc(N(C)C)c(Nc2ncnc3cc(OC)c(OC)cc23)c1` [compound 7, 3-((6,7-dimethoxyquinazolin-4-yl)amino)-4-(dimethylamino)-N-methylbenzenesulfonamide]: the inhibition at 1 µM in [1] was 0%; in assay [2], 0%; in [3] it was 1%; in assay [4], 8%; in assay [5], 0%; in assay [6], 0%. Moreover, the inhibition at 1 µM in assay [7] was 0%; in [8], 0%; in assay [9], 0%; in assay [10], 0%; in assay [11] it was 37%; in [12], 3%. Also, the inhibition at 1 µM in [13] worked out at 0%; in assay [14], 0%; in assay [15], 0%; in assay [16], 0%; in assay [17], 11%; in assay [18], 0%. Besides, the inhibition at 1 µM in assay [19] amounted to 24%; in assay [20] it was 69%; in assay [21], 25%; in assay [22] it was 0%; in assay [23] it was 62%; in assay [24], 0%.

As a reminder, the inhibition is how much of the control response was suppressed.
